Activity calls are given as the source filed them. The rule behind the calls is not given here.
How the values were obtained:
[1] = test system: Candida albicans; assay: Antifungal activity against Candida albicans at 10 mg/ml after 48 hrs by disc diffusion method; type: functional, organism-based
[2] = test system: Micrococcus luteus; assay: Antibacterial activity against Micrococcus luteus at 10 mg/ml after 24 hrs by disc diffusion method; type: functional, organism-based
[3] = test system: Escherichia coli; assay: Antibacterial activity against Escherichia coli at 10 mg/ml after 24 hrs by disc diffusion method; type: functional, organism-based
[4] = test system: Schwanniomyces occidentalis; assay: Antifungal activity against Schwanniomyces occidentalis at 10 mg/ml after 48 hrs by disc diffusion method; type: functional, organism-based
[5] = test system: Acinetobacter radioresistens; assay: Antibacterial activity against Acinetobacter radioresistens at 6.25 to 200 ug/ml after 24 hrs by microwell dilution method; type: functional, organism-based
[6] = test system: Aspergillus; assay: Antifungal activity against Aspergillus at 10 mg/ml after 72 hrs by disc diffusion method; type: functional, organism-based
[7] = test system: Proteus vulgaris; assay: Antibacterial activity against Proteus vulgaris at 6.25 to 200 ug/ml after 24 hrs by microwell dilution method; type: functional, organism-based
[8] = test system: Acinetobacter radioresistens; assay: Antibacterial activity against Acinetobacter radioresistens at 10 mg/ml after 24 hrs by disc diffusion method; type: functional, organism-based
[9] = test system: Photorhabdus luminescens; assay: Antibacterial activity against Photorhabdus luminescens at 10 mg/ml after 24 hrs by disc diffusion method; type: functional, organism-based
[10] = test system: Staphylococcus cohnii; assay: Antibacterial activity against Staphylococcus cohnii at 6.25 to 200 ug/ml after 24 hrs by microwell dilution assay; type: functional, organism-based
[11] = test system: Micrococcus lylae; assay: Antibacterial activity against Micrococcus lylae at 10 mg/ml after 24 hrs by disc diffusion method; type: functional, organism-based
[12] = test system: Pseudomonas aeruginosa; assay: Antibacterial activity against Pseudomonas aeruginosa at 10 mg/ml after 24 hrs by disc diffusion method; type: functional, organism-based
[13] = test system: Candida tropicalis; assay: Antifungal activity against Candida tropicalis at 10 mg/ml after 48 hrs by disc diffusion method; type: functional, organism-based
[14] = test system: Salmonella paratyphi; assay: Antibacterial activity against Salmonella paratyphi at 10 mg/ml after 24 hrs by disc diffusion method; type: functional, organism-based; conditions: Salmonella enterica subsp. enterica serovar Paratyphi A
[15] = test system: Proteus vulgaris; assay: Antibacterial activity against Proteus vulgaris at 10 mg/ml after 24 hrs by disc diffusion method; type: functional, organism-based
[16] = test system: Photorhabdus luminescens; assay: Antibacterial activity against Photorhabdus luminescens at 6.25 to 200 ug/ml after 24 hrs by microwell dilution method; type: functional, organism-based
[17] = test system: Hepacivirus hominis; assay: Inhibition of HCV N-terminal His-tagged NS5B RNA dependent RNA polymerase expressed in Escherichia coli DH5alpha using poly rA/U12 as primer at 200 uM after 60 mins by liquid scintillation counting
[18] = test system: Micrococcus lylae; assay: Antibacterial activity against Micrococcus lylae at 6.25 to 200 ug/ml after 24 hrs by microwell dilution method; type: functional, organism-based
[19] = test system: Nakaseomyces glabratus; assay: Antifungal activity against Candida glabrata at 10 mg/ml after 48 hrs by disc diffusion method; type: functional, organism-based
[20] = test system: Candida parapsilosis; assay: Antifungal activity against Candida parapsilosis at 10 mg/ml after 48 hrs by disc diffusion method; type: functional, organism-based
[21] = test system: Staphylococcus cohnii; assay: Antibacterial activity against Staphylococcus cohnii at 10 mg/ml after 24 hrs by disc diffusion method; type: functional
[22] = test system: Klebsiella aerogenes; assay: Antibacterial activity against Enterobacter aerogenes at 10 mg/ml after 24 hrs by disc diffusion method; type: functional, organism-based
[23] = test system: Staphylococcus aureus; assay: Antibacterial activity against Staphylococcus aureus at 10 mg/ml after 24 hrs by disc diffusion method; type: functional
[24] = test system: Pseudomonas aeruginosa; assay: Antibacterial activity against Pseudomonas aeruginosa at 6.25 to 200 ug/ml after 24 hrs by microwell dilution method; type: functional, organism-based
[25] = test system: Staphylococcus aureus; assay: Antibacterial activity against Staphylococcus aureus at 6.25 to 200 ug/ml after 24 hrs by microwell dilution assay; type: functional, organism-based
[26] = test system: Pichia membranifaciens; assay: Antifungal activity against Pichia membranifaciens at 10 mg/ml after 48 hrs by disc diffusion method; type: functional, organism-based
[27] = test system: Salmonella paratyphi; assay: Antibacterial activity against Salmonella paratyphi at 6.25 to 200 ug/ml after 24 hrs by microwell dilution method; type: functional, organism-based; conditions: Salmonella enterica subsp. enterica serovar Paratyphi A
[28] = test system: Kluyveromyces marxianus; assay: Antifungal activity against Kluyveromyces marxianus at 10 mg/ml after 48 hrs by disc diffusion method; type: functional, organism-based
[29] = test system: Klebsiella aerogenes; assay: Antibacterial activity against Enterobacter aerogenes at 6.25 to 200 ug/ml after 24 hrs by microwell dilution method; type: functional, organism-based
[30] = test system: Escherichia coli; assay: Antibacterial activity against Escherichia coli at 6.25 to 200 ug/ml after 24 hrs by microwell dilution method; type: functional, organism-based
[31] = test system: Micrococcus luteus; assay: Antibacterial activity against Micrococcus luteus at 6.25 to 200 ug/ml after 24 hrs by microwell dilution method; type: functional, organism-based

Row | SMILES | Activity [1] | Activity [2] | Activity [3] | Activity [4] | Activity [5] | Activity [6] | Activity [7] | Activity [8] | Activity [9] | Activity [10] | Activity [11] | Activity [12] | Activity [13] | Activity [14] | Activity [15] | Activity [16] | inhibition [17] [%] | Activity [18] | Activity [19] | Activity [20] | other results
1 | CCCCNC(=S)NNC(=O)C(C)c1ccc(-c2ccccc2)c(F)c1 (stereo unspecified) | inactive | inactive | inactive | inactive | inactive | inactive | inactive | inactive | inactive | inactive | inactive | inactive | inactive | inactive | inactive | inactive | 70 | inactive | inactive | inactive | Activity [21]: inactive; Activity [22]: inactive; Activity [23]: inactive; Activity [24]: inactive; Activity [25]: inactive; Activity [26]: inactive; Activity [27]: inactive; Activity [28]: inactive; Activity [29]: inactive; Activity [30]: inactive; Activity [31]: inactive
2 | CC(C(=O)N/N=C/c1ccc([N+](=O)[O-])o1)c1ccc(-c2ccccc2)c(F)c1 (stereo unspecified) | inactive | inactive | inactive | inactive | inactive | inactive | inactive | inactive | inactive | inactive | inactive | inactive | inactive | inactive | inactive | inactive | 8 | inactive | inactive | inactive | Activity [21]: inactive; Activity [22]: inactive; Activity [23]: inactive; Activity [24]: inactive; Activity [25]: inactive; Activity [26]: inactive; Activity [27]: inactive; Activity [28]: inactive; Activity [29]: inactive; Activity [30]: inactive; Activity [31]: inactive
3 | CC(C(=O)N/N=C/c1ccc(F)cc1)c1ccc(-c2ccccc2)c(F)c1 (stereo unspecified) | inactive | inactive | inactive | inactive | inactive | inactive | inactive | inactive | inactive | inactive | inactive | inactive | inactive | inactive | inactive | inactive | 8 | inactive | inactive | inactive | Activity [21]: inactive; Activity [22]: inactive; Activity [23]: inactive; Activity [24]: inactive; Activity [25]: inactive; Activity [26]: inactive; Activity [27]: inactive; Activity [28]: inactive; Activity [29]: inactive; Activity [30]: inactive; Activity [31]: inactive
4 | CC(C(=O)N/N=C1\SCC(=O)N1Cc1ccccc1)c1ccc(-c2ccccc2)c(F)c1 (stereo unspecified) | inactive | inactive | inactive | inactive | inactive | inactive | inactive | inactive | inactive | inactive | inactive | inactive | inactive | inactive | inactive | inactive | 8 | inactive | inactive | inactive | Activity [21]: inactive; Activity [22]: inactive; Activity [23]: inactive; Activity [24]: inactive; Activity [25]: inactive; Activity [26]: inactive; Activity [27]: inactive; Activity [28]: inactive; Activity [29]: inactive; Activity [30]: inactive; Activity [31]: inactive
5 | CC(C(=O)NN1C(=O)CSC1c1c(F)cccc1F)c1ccc(-c2ccccc2)c(F)c1 (stereo unspecified) | inactive | inactive | inactive | inactive | inactive | inactive | inactive | inactive | inactive | inactive | inactive | inactive | inactive | inactive | inactive | inactive | 8 | inactive | inactive | inactive | Activity [21]: inactive; Activity [22]: inactive; Activity [23]: inactive; Activity [24]: inactive; Activity [25]: inactive; Activity [26]: inactive; Activity [27]: inactive; Activity [28]: inactive; Activity [29]: inactive; Activity [30]: inactive; Activity [31]: inactive
6 | CC(C(=O)N/N=C/c1ccccc1F)c1ccc(-c2ccccc2)c(F)c1 (stereo unspecified) | inactive | inactive | inactive | inactive | inactive | inactive | inactive | inactive | inactive | inactive | inactive | inactive | inactive | inactive | inactive | inactive | 8 | inactive | inactive | inactive | Activity [21]: inactive; Activity [22]: inactive; Activity [23]: inactive; Activity [24]: inactive; Activity [25]: inactive; Activity [26]: inactive; Activity [27]: inactive; Activity [28]: inactive; Activity [29]: inactive; Activity [30]: inactive; Activity [31]: inactive
